Assay results reported in patent US12559506B2, “Indazole based compounds and associated methods of use” (Arvinas Operations, Inc., priority 2021, dated 2026).

Biological target: T1, LRRK2 (endogenous, HiBit tagged) (Homo sapiens, UniProt Q5S007)
T1 construct: endogenous in cells; host or cells: HEK293 cells with HiBit knock-in at the endogenous LRRK2 locus, stably expressing firefly luciferase
Test: Endogenous LRRK2 degradation assay, endogenous gene C-terminally HiBit-tagged in HEK293 cells (Nano-Glo Dual Luciferase)
Format: cell-based
Settings: endogenous HiBit-tagged LRRK2 in HEK293 cells, 24 hours treatment; for DC50: read-out: Endogenous WT DC50; for Dmax: read-out: Endogenous WT Dmax
Outline: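 LRRK2-HiBit quantified via Nano-Glo Dual Luciferase in HEK293 knock-in cells co-expressing firefly luciferase, after 24 h exposure to compound (1 μM final top, 1:3, 11 points). Values normalised to DMSO median per plate and curve-fitted; Alamar Blue viability run alongside.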

T1 sequence (Q5S007 whole entry): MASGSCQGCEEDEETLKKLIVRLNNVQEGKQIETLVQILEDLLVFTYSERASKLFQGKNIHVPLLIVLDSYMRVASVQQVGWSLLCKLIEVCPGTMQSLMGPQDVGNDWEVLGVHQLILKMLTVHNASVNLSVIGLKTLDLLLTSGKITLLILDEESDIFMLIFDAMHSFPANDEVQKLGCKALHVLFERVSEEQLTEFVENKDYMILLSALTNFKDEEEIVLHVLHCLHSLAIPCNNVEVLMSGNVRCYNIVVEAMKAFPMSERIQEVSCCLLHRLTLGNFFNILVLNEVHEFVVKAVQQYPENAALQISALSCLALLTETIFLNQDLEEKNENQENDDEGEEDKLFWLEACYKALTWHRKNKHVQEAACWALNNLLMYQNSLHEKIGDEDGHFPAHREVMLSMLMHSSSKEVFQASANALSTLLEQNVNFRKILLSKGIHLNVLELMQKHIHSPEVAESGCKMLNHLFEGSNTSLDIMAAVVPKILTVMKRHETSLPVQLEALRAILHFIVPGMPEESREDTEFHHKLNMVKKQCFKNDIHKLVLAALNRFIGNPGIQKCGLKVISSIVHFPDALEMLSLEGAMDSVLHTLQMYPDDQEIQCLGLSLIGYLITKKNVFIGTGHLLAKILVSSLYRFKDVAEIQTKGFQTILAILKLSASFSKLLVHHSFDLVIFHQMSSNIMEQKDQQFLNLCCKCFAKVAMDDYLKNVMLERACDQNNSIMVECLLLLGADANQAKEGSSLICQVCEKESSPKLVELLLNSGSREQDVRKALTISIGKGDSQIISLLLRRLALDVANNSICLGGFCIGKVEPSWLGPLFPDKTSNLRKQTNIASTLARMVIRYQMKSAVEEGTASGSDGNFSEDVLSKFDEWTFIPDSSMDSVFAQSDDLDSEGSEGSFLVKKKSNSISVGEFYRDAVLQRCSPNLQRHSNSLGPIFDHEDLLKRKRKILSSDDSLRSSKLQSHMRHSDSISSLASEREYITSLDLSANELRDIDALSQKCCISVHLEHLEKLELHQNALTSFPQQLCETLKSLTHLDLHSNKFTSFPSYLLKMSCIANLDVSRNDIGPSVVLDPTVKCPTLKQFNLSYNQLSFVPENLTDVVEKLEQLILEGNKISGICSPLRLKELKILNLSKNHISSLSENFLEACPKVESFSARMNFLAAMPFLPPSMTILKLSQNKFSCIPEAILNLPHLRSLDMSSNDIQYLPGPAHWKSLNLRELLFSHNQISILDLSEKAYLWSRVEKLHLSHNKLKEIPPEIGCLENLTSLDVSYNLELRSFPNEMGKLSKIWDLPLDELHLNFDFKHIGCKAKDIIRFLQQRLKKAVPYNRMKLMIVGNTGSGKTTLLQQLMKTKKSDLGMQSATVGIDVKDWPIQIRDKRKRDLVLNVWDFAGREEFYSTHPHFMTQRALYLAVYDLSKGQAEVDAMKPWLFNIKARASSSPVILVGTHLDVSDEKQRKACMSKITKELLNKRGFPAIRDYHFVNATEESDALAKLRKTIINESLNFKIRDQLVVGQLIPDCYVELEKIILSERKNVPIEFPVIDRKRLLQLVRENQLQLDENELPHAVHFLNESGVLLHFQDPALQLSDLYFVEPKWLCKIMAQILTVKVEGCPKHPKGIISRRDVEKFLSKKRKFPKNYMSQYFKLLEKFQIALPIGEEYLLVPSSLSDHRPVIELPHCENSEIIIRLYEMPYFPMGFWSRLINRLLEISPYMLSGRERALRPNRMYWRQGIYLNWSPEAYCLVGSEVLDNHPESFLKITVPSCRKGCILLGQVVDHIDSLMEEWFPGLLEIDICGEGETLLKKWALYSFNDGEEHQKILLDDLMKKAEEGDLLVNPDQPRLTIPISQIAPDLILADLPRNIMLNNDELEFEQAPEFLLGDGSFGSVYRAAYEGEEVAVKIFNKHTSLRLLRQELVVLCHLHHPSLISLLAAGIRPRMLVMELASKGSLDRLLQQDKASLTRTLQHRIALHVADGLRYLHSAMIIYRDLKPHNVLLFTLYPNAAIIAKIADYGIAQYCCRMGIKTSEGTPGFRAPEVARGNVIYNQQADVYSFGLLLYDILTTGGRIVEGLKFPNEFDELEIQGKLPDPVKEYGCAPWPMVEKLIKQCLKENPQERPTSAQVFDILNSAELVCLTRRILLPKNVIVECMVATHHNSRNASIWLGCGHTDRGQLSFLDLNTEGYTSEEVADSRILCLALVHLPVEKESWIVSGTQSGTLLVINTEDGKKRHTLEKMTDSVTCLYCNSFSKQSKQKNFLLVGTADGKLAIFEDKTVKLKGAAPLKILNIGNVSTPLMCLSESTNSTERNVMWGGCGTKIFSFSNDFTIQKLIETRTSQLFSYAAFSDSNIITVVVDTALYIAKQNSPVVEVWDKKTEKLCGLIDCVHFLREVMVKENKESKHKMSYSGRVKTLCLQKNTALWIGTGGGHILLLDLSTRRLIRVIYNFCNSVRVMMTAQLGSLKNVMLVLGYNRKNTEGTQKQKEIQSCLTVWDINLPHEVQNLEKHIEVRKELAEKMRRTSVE

SMILES	DC50	Dmax
CC1(Oc2ccc3[nH]nc(-c4cc(N5CCC(CC6(F)CCN(CC7CCN(c8c(F)cc9c(c8F)CN(C8CCC(=O)NC8=O)C9=O)CC7)CC6)CC5)ncn4)c3c2)CC1 (centres unmarked) [Compound 223, 3-{4,6-difluoro-5-[4-({4-fluoro-4-[(1-{6-[5-(1-methylcyclopropoxy)-1H-indazol-3-yl]pyrimidin-4-yl}piperidin-4-yl)methyl]piperidin-1-yl}methyl)piperidin-1-yl]-1-oxo-2,3-dihydro-1H-isoindol-2-yl}piperidine-2,6-dione]	10 to 50 nM	50 to 70%
CC1(Oc2ccc3[nH]nc(-c4cc(N5CCC(CN6CCN(CC7CCN(c8ccc9c(c8F)CN(C8CCC(=O)NC8=O)C9=O)CC7)CC6(C)C)CC5)ncn4)c3c2)CC1 (centres unmarked) [Compound 224, 3-[5-[4-[[3,3-dimethyl-4-[[1-[6-[5-(1-methylcyclopropoxy)-1H-indazol-3-yl]pyrimidin-4-yl]-4-piperidyl]methyl]piperazin-1-yl]methyl]-1-piperidyl]-4-fluoro-1-oxo-isoindolin-2-yl]piperidine-2,6-dione]	< 10 nM	50 to 70%
CC1(Oc2ccc3[nH]nc(-c4cc(N5CCC(CN6CC7CC(C6)N7CC6CCN(c7ccc8c(c7F)CN(C7CCC(=O)NC7=O)C8=O)CC6)CC5)ncn4)c3c2)CC1 (centres unmarked) [Compound 225, 3-{4-fluoro-5-[4-({3-[(1-{6-[5-(1-methylcyclopropoxy)-1H-indazol-3-yl]pyrimidin-4-yl}piperidin-4-yl)methyl]-3,6-diazabicyclo[3.1.1]heptan-6-yl}methyl)piperidin-1-yl]-1-oxo-2,3-dihydro-1H-isoindol-2-yl}piperidine-2,6-dione]	< 10 nM	50 to 70%
CC1(Oc2ccc3n[nH]c(-c4cc(N5CCC(CN6C[C@H]7C[C@@H]6CN7CC6CCN(c7ccc8c(c7F)CN(C7CCC(=O)NC7=O)C8=O)CC6)CC5)ncn4)c3c2)CC1 (stereo partly drawn) [Compound 226, 3-[4-fluoro-5-(4-{[(1R,4R)-5-[(1-{6-[5-(1-methylcyclopropoxy)-2H-indazol-3-yl]pyrimidin-4-yl}piperidin-4-yl)methyl]-2,5-diazabicyclo[2.2.1]heptan-2-yl]methyl}piperidin-1-yl)-1-oxo-2,3-dihydro-1H-isoindol-2-yl]piperidine-2,6-dione]	< 10 nM	50 to 70%
CC1(Oc2cc3c(-c4cc(N5CCC(O[C@H]6CC[C@H](OC7CCN(c8ccc9c(c8F)CN(C8CCC(=O)NC8=O)C9=O)CC7)CC6)CC5)ncn4)n[nH]c3cc2F)CC1 (some centres unmarked) [Compound 227, 3-[4-fluoro-1-oxo-5-(4-{[(1r,4r)-4-[(1-{6-[6-fluoro-5-(1-methylcyclopropoxy)-1H-indazol-3-yl]pyrimidin-4-yl}piperidin-4-yl)oxy]cyclohexyl]oxy}piperidin-1-yl)-2,3-dihydro-1H-isoindol-2-yl]piperidine-2,6-dione]	< 10 nM	50 to 70%
CC1(Oc2ccc3n[nH]c(-c4cc(N5CCC(O[C@H]6CC[C@H](OC7CCN(c8ccc9c(c8F)CN(C8CCC(=O)NC8=O)C9=O)CC7)CC6)CC5)ncn4)c3c2)CC1 (some centres unmarked) [Compound 228, 3-[4-fluoro-5-[4-[4-[[1-[6-[5-(1-methylcyclopropoxy)-2H-indazol-3-yl]pyrimidin-4-yl]-4-piperidyl]oxy]cyclohexoxy]-1-piperidyl]-1-oxo-isoindolin-2-yl]piperidine-2,6-dione]	10 to 50 nM	50 to 70%
CC1(Oc2cc3c(-c4cc(N5CCC(CN6CCN(CC7(F)CCN(c8ccc9c(c8F)CN(C8CCC(=O)NC8=O)C9=O)CC7)CC6)CC5)ncn4)[nH]nc3cc2F)CC1 (centres unmarked) [Compound 229, 3-{4-fluoro-5-[4-fluoro-4-({4-[(1-{6-[6-fluoro-5-(1-methylcyclopropoxy)-2H-indazol-3-yl]pyrimidin-4-yl}piperidin-4-yl)methyl]piperazin-1-yl}methyl)piperidin-1-yl]-1-oxo-2,3-dihydro-1H-isoindol-2-yl}piperidine-2,6-dione]	< 10 nM	50 to 70%
